This passage reports IC50 and EC50 results from patent US20130109682A1, “CYCLIC ETHER COMPOUNDS USEFUL AS KINASE INHIBITORS” (NOVARTIS AG, priority 2010, published 2013).

One experiment has as its target PIM2 (Homo sapiens, UniProt Q9P1W9). Nature of the experiment: KinaseGlo Pim2 ATP depletion assay. Format: biochemical. The gist of the method: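 Compound sat 15 min with enzyme and BAD peptide before ATP was added; final levels 5 nM PIM2, 10 μM peptide, 4 μM ATP, 2.5% DMSO, pH 7.5 HEPES buffer with MgCl2, DTT, BSA. Stopped near 50% ATP consumption; remaining ATP measured by luciferase luminescence.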

The target in another experiment is GSK3β (Homo sapiens, UniProt P49841). Nature of the experiment: GSK3β ATP depletion assay. It is filed as biochemical. The conditions noted are these: read-out: GSK3b IC50. In a few lines: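 Kinase activity is read as ATP consumption: luciferase luminescence reports the ATP remaining once roughly half of the 2 μM ATP is used. Reaction mix: 5 nM GSK3β, 10 μM b-CREB peptide, 50 mM Tris pH 7.5, 15 mM MgCl2, 1 mM DTT, 0.1% BSA, 2.5% DMSO. Enzyme and peptide are preincubated 15 min before ATP is added.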
Sequence of GSK3β (P49841 whole entry, species assumed): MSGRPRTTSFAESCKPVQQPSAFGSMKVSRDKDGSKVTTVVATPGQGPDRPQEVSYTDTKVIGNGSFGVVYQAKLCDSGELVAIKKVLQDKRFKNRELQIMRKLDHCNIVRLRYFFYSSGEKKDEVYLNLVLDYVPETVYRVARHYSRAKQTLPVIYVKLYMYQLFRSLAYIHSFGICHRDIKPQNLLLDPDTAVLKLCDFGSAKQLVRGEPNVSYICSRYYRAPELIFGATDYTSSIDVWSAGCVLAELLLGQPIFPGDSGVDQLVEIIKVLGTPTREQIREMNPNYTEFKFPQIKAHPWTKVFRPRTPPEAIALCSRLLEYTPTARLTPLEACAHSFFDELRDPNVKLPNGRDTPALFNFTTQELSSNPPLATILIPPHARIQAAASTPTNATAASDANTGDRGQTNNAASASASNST

For the next experiment, the target named is PIM1 (Homo sapiens, UniProt P11309). Nature of the experiment: KinaseGlo Pim1 ATP depletion assay. It is filed as biochemical. The gist of the method: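 IC50 is derived from residual ATP measured by KinaseGlo Plus luminescence once about half the ATP was consumed. Final conditions were 20 μM ATP, 40 μM BAD peptide and 2.5 nM kinase in HEPES pH 7.5 buffer with MgCl2, DTT and BSA, plus 2.5% DMSO. Compound and enzyme were premixed 15 min before ATP addition.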
Sequence of PIM1 (P11309 whole entry): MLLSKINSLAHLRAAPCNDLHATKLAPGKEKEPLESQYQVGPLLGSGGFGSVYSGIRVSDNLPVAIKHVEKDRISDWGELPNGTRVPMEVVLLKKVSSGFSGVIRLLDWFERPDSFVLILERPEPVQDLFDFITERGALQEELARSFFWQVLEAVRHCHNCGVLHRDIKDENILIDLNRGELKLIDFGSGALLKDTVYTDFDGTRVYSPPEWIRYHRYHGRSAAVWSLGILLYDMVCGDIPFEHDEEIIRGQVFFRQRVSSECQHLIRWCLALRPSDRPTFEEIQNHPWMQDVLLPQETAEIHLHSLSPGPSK

Experiment [1] deals with KMS11 (human myeloma cell line). Nature of the experiment: Cell proliferation assay (CellTiter-Glo), KMS11. It is filed as cell-based. The conditions noted are these: KMS11-Luc cells. The gist of the method:
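EC50 derived from CellTiter-Glo luminescence after 3-day exposure at 37° C. Compound was diluted to 2× in medium and added to an equal volume of cells. KMS11 myeloma cells were plated on assay day at 2000/well in IMDM with 10% FBS and sodium pyruvate.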

A further experiment concerns the target PIM3 (Homo sapiens, UniProt Q86V86). The experiment in a line: KinaseGlo Pim3 ATP depletion assay. It is filed as biochemical. In a few lines:
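Residual ATP was detected by luciferase luminescence once about half had been consumed. The reaction contained 5 nM enzyme, 100 μM BAD peptide (RSRHSSYPAGT) and 40 μM ATP in 50 mM HEPES pH 7.5, 5 mM MgCl2, 1 mM DTT and 0.05% BSA with 2.5% DMSO. Compound and enzyme/peptide were premixed 15 min before ATP.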

Sequence of PIM2 (Q9P1W9 whole entry): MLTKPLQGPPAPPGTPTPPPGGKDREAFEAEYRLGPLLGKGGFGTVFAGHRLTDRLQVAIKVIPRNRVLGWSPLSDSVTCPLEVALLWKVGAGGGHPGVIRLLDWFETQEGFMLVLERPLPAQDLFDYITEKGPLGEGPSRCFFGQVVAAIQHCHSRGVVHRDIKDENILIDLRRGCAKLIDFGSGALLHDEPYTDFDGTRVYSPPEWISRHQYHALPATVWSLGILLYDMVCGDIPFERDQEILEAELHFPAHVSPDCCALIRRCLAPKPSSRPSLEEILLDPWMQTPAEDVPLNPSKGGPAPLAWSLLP

As for `N#C[C@H]1O[C@@H](c2ccncc2NC(=O)c2nc(-c3nccs3)ccc2N)C[C@@H](O)[C@@H]1O` [Example 150, 3-amino-N-(4-((2R,4R,5S,6R)-6-cyano-4,5-dihydroxytetrahydro-2H-pyran-2-yl)pyridin-3-yl)-6-(thiazol-2-yl)picolinamide], the 50% inhibitory concentration (IC50) against PIM2 stood at 156 nM; at GSK3β, 207 nM; at PIM1, 57.1 nM; at PIM3, 53.3 nM. In experiment [1] (Homo sapiens, KMS-11), this compound showed an EC50 above 10000 nM.

Take `CC[C@H]1O[C@@H](c2ccncc2NC(=O)c2nc(-c3nccs3)ccc2N)C[C@@H](O)[C@@H]1O` [Example 145, 3-amino-N-(4-((2R,4R,5S,6R)-6-ethyl-4,5-dihydroxytetrahydro-2H-pyran-2-yl)pyridin-3-yl)-6-(thiazol-2-yl)picolinamide]: the IC50 on PIM2 was determined as 57.5 nM; on GSK3β, 2250 nM; at PIM1, 18.4 nM; at PIM3, 19.4 nM. This compound displayed an EC50 in experiment [1] above 10000 nM.

On to `O=C(Nc1cnccc1[C@@H]1OCC[C@H](CO)O1)c1ccc(F)c(-c2c(F)cccc2F)n1` [Example 100, 6-(2,6-difluorophenyl)-5-fluoro-N-(4-((2R,4R)-4-(hydroxymethyl)-1,3-dioxan-2-yl)pyridin-3-yl)picolinamide], for which the concentration for half-maximal inhibition (IC50) on PIM2 was 799 nM; at GSK3β, 2470 nM; at PIM1 it was 10 nM; at PIM3, 42 nM. The EC50 in experiment [1] (Homo sapiens, KMS-11) is above 10000 nM.

`O=C(Nc1cnccc1[C@H]1C[C@@H](O)[C@H](O)[C@@H](C2CC2)O1)c1ccc(F)c(-c2c(F)cccc2F)n1` [Example 211, N-(4-((2R,4R,5S,6R)-6-cyclopropyl-4,5-dihydroxytetrahydro-2H-pyran-2-yl)pyridin-3-yl)-6-(2,6-difluorophenyl)-5-fluoropicolinamide]: the IC50 against PIM2 is 3.1 nM; on GSK3β it was 636 nM; at PIM1 it was 1 nM; at PIM3, 2.2 nM. This compound also yielded an EC50 in experiment [1] (Homo sapiens, KMS-11) of 2700 nM.

For the compound `C[C@@H]1OC(c2ccncc2NC(=O)c2nc(-c3c(F)cccc3F)ncc2N)=C[C@H](O)[C@@]1(C)O` [Example 10, 5-amino-2-(2,6-difluorophenyl)-N-(4-((2S,3R,4S)-3,4-dihydroxy-2,3-dimethyl-3,4-dihydro-2H-pyran-6-yl)pyridin-3-yl)pyrimidine-4-carboxamide], the half-maximal inhibitory concentration (IC50) on PIM2 was 40 nM; on GSK3β, 1470 nM; on PIM1 it was 18.6 nM; on PIM3, 20.6 nM. In experiment [1] (Homo sapiens, KMS-11), this compound yielded an EC50 of 8630 nM.

In the case of `C[C@H]1O[C@@H](c2ccncc2NC(=O)c2ccc(F)c(-c3c(F)cccc3F)n2)C[C@H](O)[C@@H]1O` [Example 108, 6-(2,6-difluorophenyl)-N-(4-((2R,4S,5S,6R)-4,5-dihydroxy-6-methyltetrahydro-2H-pyran-2-yl)pyridin-3-yl)-5-fluoropicolinamide], the IC50 at PIM2 came out at 15 nM; at GSK3β it was 344 nM; on PIM1, 1 nM; against PIM3 it was 5 nM. A half-maximal response in experiment [1] (Homo sapiens, KMS-11) (EC50) required 4200 nM.

As for `Nc1cnc(-c2c(F)cccc2F)nc1C(=O)Nc1cnccc1[C@@H]1C[C@H](O)[C@@H](O)[C@H](C2CC2)O1` [Example 205, 5-amino-N-(4-((2S,4S,5R,6S)-6-cyclopropyl-4,5-dihydroxytetrahydro-2H-pyran-2-yl)pyridin-3-yl)-2-(2,6-difluorophenyl)pyrimidine-4-carboxamide], the IC50 against PIM2 was 45.4 nM; at GSK3β it was 1870 nM; against PIM1 it was 37.3 nM; against PIM3 it was 69.7 nM. This compound came in with a half-maximal effective concentration (EC50) in experiment [1] (Homo sapiens, KMS-11) above 10000 nM.

With `C[C@@H]1C[C@H](O)C[C@H](c2ccncc2NC(=O)c2ccc(F)c(-c3c(F)cccc3F)n2)O1` (stereo in doubt) [Example 126, 6-(2,6-difluorophenyl)-5-fluoro-N-(4-((2R,4S,6R)-4-hydroxy-6-methyltetrahydro-2H-pyran-2-yl)pyridin-3-yl)picolinamide], the IC50 at PIM2 was found to be 213 nM; on GSK3β, 548 nM; against PIM1, 4 nM; against PIM3, 52 nM. In addition, the EC50 in experiment [1] (Homo sapiens, KMS-11) is above 10000 nM.

With `CC[C@]1(O)[C@H](O)C[C@H](c2ccncc2NC(=O)c2nc(-c3ncccc3F)ccc2N)O[C@@H]1C` [Example 155, 5-amino-N-(4-((2R,4R,5S,6R)-5-ethyl-4,5-dihydroxy-6-methyltetrahydro-2H-pyran-2-yl)pyridin-3-yl)-3′-fluoro-2,2′-bipyridine-6-carboxamide], the half-inhibitory concentration (IC50) was 46.3 nM on PIM2, 374 nM on GSK3β, 4 nM at PIM1 and 5.3 nM against PIM3. The EC50 in experiment [1] (Homo sapiens, KMS-11) was 4920 nM.

As to `Nc1ccc(-c2c(F)cccc2F)nc1C(=O)Nc1cnccc1[C@H]1C[C@@H](N)[C@@]2(O)CCC[C@H]2O1` [Example 215, 3-amino-N-(4-((2R,4R,4aS,7aR)-4-amino-4a-hydroxyoctahydrocyclopenta[b]pyran-2-yl)pyridin-3-yl)-6-(2,6-difluorophenyl)picolinamide], the IC50 on PIM2 is 2.6 nM; on GSK3β, 252 nM; on PIM1, 0.6 nM; against PIM3, 4 nM. Also, a half-maximal effect in experiment [1] (Homo sapiens, KMS-11) (EC50) was put at 800 nM.

As to `CC(C)NC(=O)c1ccc(F)c(-c2cccc(C(=O)Nc3cnccc3[C@H]3C[C@@H](O)[C@](C)(O)[C@@H](C)O3)n2)c1` [Example 106, N-(4-((2R,4R,5S,6R)-4,5-dihydroxy-5,6-dimethyltetrahydro-2H-pyran-2-yl)pyridin-3-yl)-6-(2-fluoro-5-(isopropylcarbamoyl)phenyl)picolinamide], the IC50 worked out at 78 nM at PIM2, 3590 nM at GSK3β, 7 nM on PIM1 and 15 nM on PIM3. This compound gave an EC50 in experiment [1] (Homo sapiens, KMS-11) of 9200 nM.

Turning to `C[C@H]1O[C@@H](c2ccncc2NC(=O)c2nc(-c3c(F)cccc3F)c(F)cc2N)C[C@@H](O)[C@]1(C)O` [Example 33, 3-amino-6-(2,6-difluorophenyl)-N-(4-((2R,4R,5S,6R)-4,5-dihydroxy-5,6-dimethyltetrahydro-2H-pyran-2-yl)pyridin-3-yl)-5-fluoropicolinamide], the IC50 against PIM2 amounted to 2 nM; at GSK3β, 276 nM; on PIM1, 1 nM; against PIM3 it was 2 nM. The EC50 in experiment [1] (Homo sapiens, KMS-11) stood at 4530 nM.

Turning to `CC[C@H]1O[C@@H](c2ncncc2NC(=O)c2ccc(F)c(-c3c(F)cccc3F)n2)C[C@@H](O)[C@@H]1O` [Example 162, 6-(2,6-difluorophenyl)-N-(4-((2R,4R,5S,6R)-6-ethyl-4,5-dihydroxytetrahydro-2H-pyran-2-yl)pyrimidin-5-yl)-5-fluoropicolinamide], the 50% inhibitory concentration (IC50) at PIM2 was found to be 818 nM; at GSK3β it was 13500 nM; against PIM1, 216 nM; on PIM3 it was 178 nM. The same compound displayed an EC50 in experiment [1] (Homo sapiens, KMS-11) above 10000 nM.

`O=C(Nc1cnccc1[C@@H]1C[C@H](O)CCO1)c1csc(-c2c(F)cccc2F)n1` [Example 130, 2-(2,6-difluorophenyl)-N-(4-((2S,4R)-4-hydroxytetrahydro-2H-pyran-2-yl)pyridin-3-yl)thiazole-4-carboxamide]: the IC50 was 2350 nM at PIM2, 228 nM on GSK3β, 12 nM at PIM1 and 84 nM against PIM3. Further, the 50% effective concentration (EC50) in experiment [1] (Homo sapiens, KMS-11) is above 10000 nM.

As to `C=C1[C@@H](O)C[C@@H](c2ccncc2NC(=O)c2nc(-c3c(F)cccc3F)ncc2N)OC12CC2` [Example 6, 5-amino-2-(2,6-difluorophenyl)-N-(4-((5S,7S)-7-hydroxy-8-methylene-4-oxaspiro[2.5]octan-5-yl)pyridin-3-yl)pyrimidine-4-carboxamide], the half-maximal inhibitory concentration (IC50) was 280 nM on PIM2, 720 nM at GSK3β, 70 nM against PIM1 and 53.6 nM at PIM3. The EC50 in experiment [1] (Homo sapiens, KMS-11) is above 10000 nM.

Turning to `C[C@H]1O[C@@H](c2ccncc2NC(=O)c2csc(-c3c(F)cccc3F)n2)C[C@@H](O)[C@]1(C)O` (stereo in doubt) [Example 109, 2-(2,6-difluorophenyl)-N-(4-((2R,4R,5S,6R)-4,5-dihydroxy-5,6-dimethyltetrahydro-2H-pyran-2-yl)pyridin-3-yl)thiazole-4-carboxamide], the IC50 was 3420 nM on PIM2, 272 nM on GSK3β, 68 nM against PIM1 and 88 nM against PIM3. In addition, the EC50 in experiment [1] (Homo sapiens, KMS-11) was above 10000 nM.
